Results taken from patent US20170105981A1, “METHODS FOR STABILIZING HYPOXIA INDUCIBLE FACTOR-2 ALPHA AS A METHOD FOR TREATING CANCER” (The Ohio State Innovation Foundation, priority 2011, published 2017).

Key:
[1] = test system: B16F10 murine melanoma cells; experiment: Murine melanoma tumor model (B16F10 in C57BL/6 mice); format: in vivo; settings: for tumor growth: FIG. 14A
Procedure: Mice were injected with 1×10^5 B16F10 murine melanoma cells murine subcutaneously on the left flank. Once tumors become palpable (approximately 5 days), mice were randomly allocated to receive treatment with either: 20% polyethylene glycol (PEG) in 5% […] (vehicle control for the disclosed HIF-2α stabilizer) and PBS (vehicle control for GM-CSF), 20% PEG and GM-CSF (100 ng per mouse in a 50 μL volume), the disclosed HIF-2α stabilizer (17.5 mg/kg in a 100 μL volume) and PBS, or the disclosed HIF-2α stabilizer and GM-CSF (same doses). The PBS and GM-CSF were administered intratumorally, while the 20% PEG and the disclosed HIF-2α stabilizer were administered intraperitoneally. Mice were treated 3 times per week until tumors reached a size of 20 mm in any dimension (approximately 2.5 weeks), at which point mice were euthanized, in accordance with institutional policy. Tumor diameters were measured 3 times per week with calipers, and tumor volumes were calculated as follows: Tumor volume=0.5×[(large diameter)×(small diameter)^2].
6-8-week-old C57BL/6 mice were injected with 1×10^5 B16F10 murine melanoma cells murine subcutaneously on the left flank. Once tumors become palpable (approximately 5 days), mice were randomly allocated to receive treatment with either: 20% PEG-400 in 5% sucrose (vehicle for disclosed HIF-2α stabilizer) and PBS (vehicle for GM-CSF), 20% PEG-400 and GM-CSF (100 ng per mouse in a 50 μL volume), disclosed HIF-2α stabilizer (17.5 mg/kg mouse weight in a 100 μL volume) and PBS, or the disclosed HIF-2α stabilizer and GM-CSF (same concentrations). The disclosed HIF-2α stabilizer (or the vehicle control) was administered intraperitoneally, while GM-CSF (or the vehicle control) was administered intratumorally. Mice were treated […] 3 times per week until tumors reached a size of 20 mm in any dimension (approximately 2.5 weeks), at which point mice were be euthanized, in accordance with institutional policy. Tumor diameters were measured 3 times per week with calipers, and tumor volumes will be calculated as follows: Tumor volume=0.5×[(large diameter)×(small diameter)^2]. For experiments analyzing the effect of neutralizing sVEGFR-1 in combination with disclosed HIF-2α stabilizer treatment, mice were treated intraperitoneally 3×/week with either disclosed HIF-2α stabilizer or vehicle control, and intratumorally with either 4 μg anti-VEGFR-1 neutralizing antibody (R&D Systems) or 4 μg polyclonal goat IgG isotype control (Santa Cruz Biotechnology) in a 50 μL volume. All protocols were approved by the Ohio State University Animal Care and Use Committee, and mice were treated in accordance with institutional guidelines for animal care.
The ANOVA test was used to compare independent measurements between multiple treatment groups. The data was log-transformed to normalize the variance across groups. P-values were adjusted using the Holm's procedure to conserve the type I error at 0.05 due to the multiple comparisons. For tumor growth data, changes in tumor volume over time were assessed via a longitudinal model. Tumor values were log-transformed, and estimated slopes (changes in tumor volume over time) were calculated with 95% confidence intervals. Estimated differences in tumor volume were calculated by a random-effects regression of the longitudinal data. For all analyses, p≦0.05 was considered statistically significant.
6-8-week-old C57BL/6 mice or SCID mice were injected with 1×10^5 B16F10 murine melanoma cells or 1×10^6 A375 human melanoma cells, respectively, subcutaneously on the left flank. […]

Pmel17 mRNA = experiment: Evaluation of lung metastases by Pmel17 mRNA in lungs of B16F10 tumor-bearing mice; format: in vivo; settings: stabilizer I.P., GM-CSF I.T., vs vehicle control; FIG. 5
Procedure: Lung metastases were evaluated by detection of mRNA for melanocyte-specific proteins within the lungs of tumor-bearing mice. B16F10 tumor-bearing mice were treated with GM-CSF and/or the disclosed HIF-2α stabilizer, as depicted in FIG. 3. At the time of sacrifice, lungs were excised and flash-frozen in liquid nitrogen. Frozen lungs were homogenized in liquid nitrogen and the pulverized material was dissolved in TRIzol™ reagent (Invitrogen). […] The melanocyte-specific Pmel17 was detected by nested PCR using a modification of the protocol described by Tsukamoto et al. For the initial reaction, 30 cycles of PCR were carried out (95° C. for 1 minute, 58° C. for 1 min, 72° C. for 1 min) in a 20 μL reaction volume containing 2 μL of cDNA. […] Data were analyzed according to the comparative threshold method and normalized against the GAPDH internal control transcript. Results are semi-quantitative and represent the fold difference in transcript levels in vehicle-treated control mice as compared with levels in mice treated with the disclosed HIF-2α stabilizer and/or GM-CSF.
Lung metastases were evaluated by detection of mRNA for melanocyte-specific proteins within the lungs of tumor-bearing mice. […] Data were analyzed according to the comparative threshold method and normalized against the β-actin internal control transcript. […]

O=C(O)CNC(=O)c1ncc(-c2cccc(F)c2)cc1O [disclosed HIF-2α stabilizer, {[5-(3-Fluorophenyl)-3-hydroxypyridine-2-carbonyl]amino} acetic acid]
tumor growth / tumor volume ([1]; B16F10 melanoma, stabilizer 17 mg/kg I.P., GM-CSF I.T., vs PBS control, FIG. 3): reduces tumor growth | increase in median survival (time to a tumor diameter of 20 mm) ([1]; B16F10 melanoma-bearing mice, stabilizer alone, p=0.023, FIG. 12B): 3 days | average tumor volumes vs vehicle controls ([1]; day 16 of treatment, 3×/week, GM-CSF 100 ng/mouse intratumoral, stabilizer 17.5 mg/kg intraperitoneal, each p<0.001): significantly smaller | tumor growth ([1]; mice also treated with anti-sVEGFR-1 neutralizing antibody, p=0.245): no effect | tumor growth ([1]; mice treated with isotype control antibody, p<0.001): decreased tumor growth | relative metastasis to the lung (Pmel17 mRNA expression) (Pmel17 mRNA): reduced metastasis
